Structures are written as SMILES.

The test system of data set [1] is CT-DNA. The experiment in a line: Thermal stability (melting temperature) of CT-DNA by UV-Vis. Particulars: for Tm: CT-DNA, 1:3 complex:base pairs, 2 mM cacodylate pH 7.4, 2 h 310 K; for ΔTm: versus free DNA. It counts as binding, calf. As to the method:
Supplementary Table 6: Melting temperature (Tm) of CT-DNA in the presence of 8 or complex 2 (ratio 1:3, complex: base pairs-DNA). The reactions were carried out in cacodylate buffer (2 mM, pH 7.4), and samples incubated for 2 h at 310 K. […]
a variation in melting temperature between free DNA and DNA in the presence of the corresponding complex. * […] from free DNA using a T-test analysis. ** p < 0.01 from free DNA using a T-test analysis […]
Thermal stability of CT-DNA
The melting temperature of CT-DNA in the presence and absence of complex 2 [(p-cym)Ru(TsEn)Cl] was determined by UV-Vis spectroscopy (Supplementary Table 6). Higher melting temperatures indicate increased stabilization of the DNA, which is the effect produced by DNA-intercalators and often by direct metal coordination to […]
the nucleobases.11 Destabilization of DNA can result in a decrease of the melting […]
In the presence of complex 8, the melting temperature of CT-DNA increased In agreement with the literature, 12 by 14 K, in 2 mM NaCl, 2 mM cacodylate buffer.
This increase is due to Ru binding to DNA as well as intercalation. 12 However, upon increasing the chloride concentration by ca. 10x (20 mM NaCl) the melting temperature of CT-DNA in the presence of complex 8, increased only by 7 K. This effect has previously been reported and it is attributed to the partial inhibition of hydrolysis, and, therefore, inhibition of coordination to DNA. 12, 13
Experiments performed in the presence of complex 2, in 2 mM cacodylate buffer and […]
NaCl, no decrease of the melting temperature was observed. […]

Data set [2] deals with NAD^+/NADH ratio in A2780 cells. The experiment in a line: NAD+/NADH determination in cells. It counts as cell-based, human. How it is done:
Experiments to determine the NAD^+/NADH ratio in A2780 ovarian cancer cells exposed to complex 2 were carried out using the NAD^+/NADH assay kit from Abcam (ab65348) according to the manufacturer’s instructions. Briefly, A2780 cells were seeded in six-well plates at a density of 1.0 × 10^6 cells per well. […] These concentrations of sodium formate were also used on their own as a second set of negative controls. Drug exposure was allowed for 24 h, after which all supernatants were removed by suction and wells were washed with PBS. Cells were treated with trypsin, detached and counted before being pelleted by centrifugation. Cell pellets were extracted using the NAD/NADH extraction buffer and filtered using a 10-kDa-molecular weight cutoff filter. Samples were split into two, the first half was used to determine total NADt (NAD+NADH), and the second half to determine NADH after heating the samples at 333 K for 30 min. The absorbance at 450 nm was normalized against the protein content in each sample determined using the Bradford assay.
Experiments to determine the time dependence of the NAD/NADH ratio in A2780 ovarian cancer cells exposed to complex 2 were carried out using the NAD^+/NADH assay kit as described above with the following modifications.

The nature of data set [3]: pKa* of aqua adducts of the complexes. It counts as physicochemical. The following applies: pKa value determined in deuterated solvent. The text has this: Table 1 pKa* values for aqua adducts of catalysts 1–4 (and 8 for comparison) and turnover frequencies for transfer hydrogenation of NAD^+ using formate. | column: pKa*
Data set [4] deals with 9-ethylguanine. Briefly: Binding to model nucleobase 9-ethylguanine by 1H NMR. The following applies: D2O, pH* 7.2 ± 0.1, 310 K. How it is done:
Supplementary Table 4: Binding constants for formation of 9-EtG adducts of complexes 1-4 determined by 1H NMR. The experiments were performed in D2O, pH* 7.2 ± 0.1 and 310 K. Equilibrium was reached by the time the first 1H NMR spectrum was recorded (< 10 min). […]
DNA is believed to be the main target for [(bip)Ru(en)Cl]+ (8). Due to the structural similarity of the complexes 1-5 with complex 8, their binding to DNA was […]
Interaction with nucleobases
Initially, model nucleobases, 9-ethylguanine and 9-methyladenine were reacted with complexes 1-4 in D2O, 310 K and pH* 7.2 ± 0.1. The binding of the complexes to 9-EtG or 9-MeA was monitored by 1H-NMR spectroscopy. Peaks for the 9-EtG adducts were observed by the time the first spectrum was recorded (< 5 min after mixing), […]
equilibrium was reached rapidly. The binding constants for formation of 9-EtG adducts determined by NMR were between 60 and 106 mM-1 (Supplementary Table 4). These values are in the same range as that from the ethylenediamine complex [(bip)Ru(en)Cl]+ (K9-EtG= 60.3 mM-1),2 which also binds strongly to DNA.3, 4 The high resolution mass spectrum confirmed the formation of [(η6-arene)Ru(XEn)(9-EtG)]+ (Supplementary Table 5). The interaction of complexes 1-4 with 9-MeA was also investigated, but no reaction was detected by 1H-NMR.
It is well established that N7 of guanine is the preferred nucleotide binding site for many transition metals ions. 2-8 Furthermore, strong and selective binding to N7 of 9-EtG, has been observed for [(η6-arene)Ru(en)Cl]+.3, 4 A pH* titration of […]

Data set [5] has as its system A2780 human ovarian cancer cells. Briefly: In vitro growth inhibition assay (SRB), A2780. It counts as cell-based. The following applies: A2780, 24 h drug exposure, no formate. As to the method:
A2780 human ovarian carcinoma and MRC5 human fetal lung fibroblasts were obtained from the European Collection of Cell Cultures. Both cell lines were grown in Roswell Park Memorial Institute medium (RPMI-1640) supplemented with 10% of fetal calf serum, 1% of 2 mM glutamine and 1% penicillin/streptomycin. All cells were grown as adherent monolayers at 310 K in a 5% CO2-humidified atmosphere and passaged at ca. 70–80% confluency.
The antiproliferative activity of complexes 1–8 was determined in A2780 ovarian cancer cells and MRC5 fibroblasts. Briefly, 96-well plates were used to seed 5,000 cells per well. The plates were left to pre-incubate with drug-free medium at 310 K for 48 h before adding different concentrations of the compounds to be tested. A drug exposure period of 24 h was allowed. After this, supernatants were removed by suction and each well was washed with PBS. A further 72 h were allowed for the cells to recover in drug-free medium at 310 K. The sulforhodamine B (SRB) assay was used to determine cell viability. IC50 values, as the concentration that causes 50% cell death, were determined as duplicates of triplicates in two independent sets of experiments and their s.d. were calculated.

`Cc1ccc(C(C)C)cc1.Cc1ccc(S(=O)(=O)[N-]CCN)cc1.[Cl-].[Ru+2]` [Complex 2, [(p-cym)Ru(TsEn)Cl]]: the “decrease in the melting temperature of CT-DNA” value in data set [1] (2 mM cacodylate buffer and 2 mM NaCl) was -269 °C. Further, the Tm in data set [1] (2 mM NaCl) amounted to 47.2 ± 1.6 °C; in data set [1] (20 mM NaCl), 54.4 ± 0.7 °C. In addition, the ΔTm in data set [1] (2 mM NaCl) was -2.4; in data set [1] (20 mM NaCl), -4.9. For the same molecule, the “apparent TOF (TOFap) for conversion of NAD+ to NADH in cells” value in data set [2] (A2780, 4.5 μM complex 2 and 2 mM sodium formate, 0-24 h) was 0.19 ± 0.01 h⁻¹. The “NAD+/NADH ratio” value worked out at 1.1 in data set [2] (A2780, complex 2, 24 h, 2 mM formate); 4.5 in data set [2] (A2780, complex 2, 24 h, no formate); 0.74 in data set [2] (A2780, complex 2 and 2 mM sodium formate, after 12 h); 0.98 in data set [2] (A2780, complex 2 and 2 mM sodium formate, after 24 h); 0.83 in data set [2] (A2780, complex 2 and 2 mM sodium formate, t=4 h). In data set [3], the “pKa*” value stood at 9.78±0.06. Also, the “Binding constant for formation of 9-EtG adducts” value in data set [4] was determined as 104.9 ± 3.9 mM⁻¹. Besides, in data set [5], the IC50 was 13.6 ± 0.6 µM.

Broadly, the IC50 is the concentration that inhibits the measured activity by half.

These data come from paper PMC4383003, “Transfer hydrogenation catalysis in cells as a new approach to anticancer drug design” (Nature Communications, 2015).
